Like-named read-outs stand apart in the source and are kept apart here.
Assays:
Test in all cases: 3D clonogenic assay (PDX)
Assay type in all cases: cell-based, human
CXF 1297 = settings: CXF 1297, Colorectal; for IC50: Homo sapiens
Outline: (§1)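 Tumor xenografts are dissociated with a collagenase/DNase/hyaluronidase/dispase cocktail, and the cells are frozen, then thawed and embedded in 0.4% agar over a 0.75% agar base. Compound is added at day 1 and left on continuously for 8–13 days. IC50 is taken as the curve inflection point or as the concentration at T/C = 50%.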

CXF 243 = settings: CXF 243, Colorectal; for IC50: Homo sapiens
Outline: as §1

CXF 94 = settings: CXF 94, Colorectal; for IC50: Homo sapiens
Outline: as §1

HNXF 1842 = settings: HNXF 1842, Head and Neck; for IC50: Homo sapiens
Outline: as §1

HNXF 536 = settings: HNXF 536, Head and Neck; for IC50: Homo sapiens
Outline: as §1

LXFL 529 = settings: LXFL 529, Lung Large Cell; for IC50: Homo sapiens
Outline: as §1

MEXF 622 = settings: MEXF 622, Melanoma; for IC50: Homo sapiens
Outline: as §1

OVXF 1023 = settings: OVXF 1023, Ovarian; for IC50: Homo sapiens, OVXF1023
Outline: as §1

PAXF 1998 = settings: PAXF 1998, Pancreas; for IC50: Homo sapiens
Outline: as §1

RXF 1114 = settings: RXF 1114, Renal; for IC50: Homo sapiens
Outline: as §1

SXFS 117 = settings: SXFS 117, Sarcoma Soft Tissue; for IC50: Homo sapiens
Outline: as §1

SXFS 627 = settings: SXFS 627, Sarcoma Soft Tissue; for IC50: Homo sapiens
Outline: as §1

IC50 (CXF 1297; read-out: abs. IC50): 6.42 µM
IC50 (CXF 1297; read-out: rel. IC50): 6.37 µM
IC50 (CXF 243; read-out: abs. IC50): 9.22 µM
IC50 (CXF 243; read-out: rel. IC50): 8.63 µM
IC50 (CXF 94; read-out: abs. IC50): 13.3 µM
IC50 (CXF 94; read-out: rel. IC50): 12.7 µM
IC50 (HNXF 1842; read-out: abs. IC50): 5.4 µM
IC50 (HNXF 1842; read-out: rel. IC50): 5.53 µM
IC50 (HNXF 536; read-out: abs. IC50): 8.21 µM
IC50 (HNXF 536; read-out: rel. IC50): 7.47 µM
IC50 (LXFL 529; read-out: abs. IC50): 10.4 µM
IC50 (LXFL 529; read-out: rel. IC50): 10.1 µM
IC50 (MEXF 622; read-out: abs. IC50): 9.21 µM
IC50 (MEXF 622; read-out: rel. IC50): 9.14 µM
IC50 (OVXF 1023; read-out: abs. IC50): 7.49 µM
IC50 (OVXF 1023; read-out: rel. IC50): 6.84 µM
IC50 (PAXF 1998; read-out: abs. IC50): 8.89 µM
IC50 (PAXF 1998; read-out: rel. IC50): 8.54 µM
IC50 (RXF 1114; read-out: abs. IC50): 8.18 µM
IC50 (RXF 1114; read-out: rel. IC50): 7.98 µM
IC50 (SXFS 117; read-out: abs. IC50): 8.55 µM
IC50 (SXFS 117; read-out: rel. IC50): 8.58 µM
IC50 (SXFS 627; read-out: abs. IC50): 5.84 µM
IC50 (SXFS 627; read-out: rel. IC50): 5.74 µM
Structure (SMILES): O[C@H](c1cc(-c2ccc(Cl)cc2)nc2ccccc12)[C@@H]1CCCCN1 [S1, (R)-(2-(4-chlorophenyl)quinolin-4-yl)((S)-piperidin-2-yl)methanol]
b (bottom plateau of concentration-effect curve) (CXF 1297): 15
t (top plateau of concentration-effect curve) (CXF 1297): 90
b (bottom plateau of concentration-effect curve) (CXF 243): 46
t (top plateau of concentration-effect curve) (CXF 243): 102
b (bottom plateau of concentration-effect curve) (CXF 94): 8
t (top plateau of concentration-effect curve) (CXF 94): 98
b (bottom plateau of concentration-effect curve) (HNXF 1842): 15
t (top plateau of concentration-effect curve) (HNXF 1842): 77
b (bottom plateau of concentration-effect curve) (HNXF 536): 14
t (top plateau of concentration-effect curve) (HNXF 536): 99
b (bottom plateau of concentration-effect curve) (LXFL 529): 11
t (top plateau of concentration-effect curve) (LXFL 529): 92
b (bottom plateau of concentration-effect curve) (MEXF 622): 21
t (top plateau of concentration-effect curve) (MEXF 622): 86
b (bottom plateau of concentration-effect curve) (OVXF 1023): 11
t (top plateau of concentration-effect curve) (OVXF 1023): 100
b (bottom plateau of concentration-effect curve) (PAXF 1998): 38
t (top plateau of concentration-effect curve) (PAXF 1998): 104
b (bottom plateau of concentration-effect curve) (RXF 1114): 30
t (top plateau of concentration-effect curve) (RXF 1114): 94
b (bottom plateau of concentration-effect curve) (SXFS 117): 4
t (top plateau of concentration-effect curve) (SXFS 117): 91
b (bottom plateau of concentration-effect curve) (SXFS 627): 7
t (top plateau of concentration-effect curve) (SXFS 627): 96

— patent EP3064205A1, “Therapeutic use of isomeric forms of 2-(4-chlorophenyl)quinolin-4-yl)(piperidin-2-yl)methanol” (Glionova AB, priority 2015, dated 2016)
